According to PubChem BioAssay AID248 (DTP/NCI, 2004):
Where “and” joins values, the source holds several entries; their conditions need not be identical. Identical values can stand only once. Inconclusive results and toxic doses are left out. Rule as the data show it: active = T/C of 150% or more; inactive = T/C below 125%.

Tested on: L1210 leukemia ip in BDF1 mice, survival T/C
Test: NCI In Vivo Anticancer Drug Screen. Data for tumor model L1210 Leukemia (intraperitoneal) in B6D2F1 (BDF1) mice
Conditions: higher = longer survival
How it was run: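 Value reflects the ratio of survival in compound-treated mice to survival in vehicle-treated controls, with both groups carrying the same transplanted tumor.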

[1] = endpoint: mean survival time, dose: 100.0 mg/kg/injection, schedule: Q01DX001 (ip), vehicle: carboxymethylcellulose (CMC)
[2] = endpoint: mean survival time, dose: 200.0 mg/kg/injection, schedule: Q01DX001 (ip), vehicle: carboxymethylcellulose (CMC)
[3] = endpoint: mean survival time, dose: 400.0 mg/kg/injection, schedule: Q01DX001 (ip), vehicle: carboxymethylcellulose (CMC)
[4] = endpoint: mean survival time, dose: 50.0 mg/kg/injection, schedule: Q04DX002 (ip), vehicle: Klucel (hydroxypropylcellulose) (HPC)
[5] = endpoint: mean survival time, dose: 100.0 mg/kg/injection, schedule: Q04DX002 (ip), vehicle: Klucel (hydroxypropylcellulose) (HPC)
[6] = endpoint: mean survival time, dose: 200.0 mg/kg/injection, schedule: Q04DX002 (ip), vehicle: Klucel (hydroxypropylcellulose) (HPC)
[7] = endpoint: mean survival time, dose: 50.0 mg/kg/injection, schedule: Q01DX001 (ip), vehicle: carboxymethylcellulose (CMC)
[8] = endpoint: mean survival time, dose: 50.0 mg/kg/injection, schedule: Q01DX009 (ip), vehicle: saline with Tween-80
[9] = endpoint: mean survival time, dose: 100.0 mg/kg/injection, schedule: Q01DX009 (ip), vehicle: saline with Tween-80
[10] = endpoint: mean survival time, dose: 100.0 mg/kg/injection, schedule: Q01DX009 (ip), vehicle: saline
[11] = endpoint: mean survival time, dose: 100.0 mg/kg/injection, schedule: Q04DX003 (ip), vehicle: saline with Tween-80
[12] = endpoint: mean survival time, dose: 100.0 mg/kg/injection, schedule: Q04DX003 (ip), vehicle: saline
[13] = endpoint: mean survival time, dose: 200.0 mg/kg/injection, schedule: Q01DX009 (ip), vehicle: saline with Tween-80
[14] = endpoint: mean survival time, dose: 200.0 mg/kg/injection, schedule: Q01DX009 (ip), vehicle: saline
[15] = endpoint: mean survival time, dose: 200.0 mg/kg/injection, schedule: Q04DX003 (ip), vehicle: saline with Tween-80
[16] = endpoint: mean survival time, dose: 200.0 mg/kg/injection, schedule: Q04DX003 (ip), vehicle: saline
[17] = endpoint: mean survival time, dose: 400.0 mg/kg/injection, schedule: Q04DX003 (ip), vehicle: saline
[18] = endpoint: mean survival time, dose: 100.0 mg/kg/injection, schedule: Q04DX002 (ip), vehicle: saline with Tween-80
[19] = endpoint: mean survival time, dose: 400.0 mg/kg/injection, schedule: Q04DX003 (ip), vehicle: saline with Tween-80
[20] = endpoint: mean survival time, dose: 400.0 mg/kg/injection, schedule: Q01DX009 (ip), vehicle: saline with Tween-80
[21] = endpoint: mean survival time, dose: 100.0 mg/kg/injection, schedule: Q01DX001 (ip), vehicle: saline
[22] = endpoint: mean survival time, dose: 200.0 mg/kg/injection, schedule: Q01DX001 (ip), vehicle: saline
[23] = endpoint: mean survival time, dose: 400.0 mg/kg/injection, schedule: Q01DX001 (ip), vehicle: saline

Measured: T/C

CCCCC(CCCC(=O)O)C(=O)O (configuration not stated)
inactive: [1] 93 % of control | [2] 96 % of control | [3] 98 % of control

CC1(C)OC2C(COC(=O)Oc3ccccc3)OC(n3cnc4c(=O)[nH]c(N)nc43)C2O1 (configuration not stated)
inactive: endpoint: mean survival time, dose: 100.0 mg/kg/injection, schedule: Q01DX005 (ip), vehicle: saline 106 % of control | endpoint: mean survival time, dose: 200.0 mg/kg/injection, schedule: Q01DX005 (ip), vehicle: saline 97 % of control

Clc1ccc(N=Cc2ccc3c(c2)OCO3)c(Cl)c1
inactive: endpoint: mean survival time, dose: 100.0 mg/kg/injection, schedule: Q01DX009 (ip), vehicle: Klucel (hydroxypropylcellulose) (HPC) 94 % of control | endpoint: mean survival time, dose: 200.0 mg/kg/injection, schedule: Q01DX009 (ip), vehicle: Klucel (hydroxypropylcellulose) (HPC) 93 % of control | endpoint: mean survival time, dose: 400.0 mg/kg/injection, schedule: Q01DX009 (ip), vehicle: Klucel (hydroxypropylcellulose) (HPC) 96 % of control

COC(=O)c1ccccc1N=NN(C)C
inactive: [1] 102 % of control | [2] 102 % of control | endpoint: median survival time, dose: 65.0 mg/kg/injection, schedule: Q01DX001 (ip), vehicle: steriod suspending solution 110 % of control | endpoint: median survival time, dose: 108.0 mg/kg/injection, schedule: Q01DX001 (ip), vehicle: steriod suspending solution 105 % of control | endpoint: median survival time, dose: 180.0 mg/kg/injection, schedule: Q01DX001 (ip), vehicle: steriod suspending solution 120 % of control | endpoint: median survival time, dose: 300.0 mg/kg/injection, schedule: Q01DX001 (ip), vehicle: steriod suspending solution 105 % of control

O=Cc1cccn1-c1ccc2ncccc2c1[N+](=O)[O-]
inactive: [4] 90 % of control | [5] 111 % of control | [6] 93 % of control

CC(C)C(CCCC(=O)O)C(=O)O (configuration not stated)
inactive: [7] 96 % of control | [1] 96 % of control | [2] 96 % of control

OCC12CCCCC1CC1(CC2)OCCO1 (configuration not stated)
inactive: [8] 102 % of control | [9] 103 % of control | [10] 100 % of control | [11] 86 % of control | [12] 111 % of control | [13] 96 % of control | [14] 102 % of control | [15] 99 % of control | [16] 106 % of control | endpoint: mean survival time, dose: 400.0 mg/kg/injection, schedule: Q01DX009 (ip), vehicle: saline 107 % of control | [17] 106 % of control

CCc1nc(N[N+](=O)[O-])nc(N)c1-c1ccccc1O
inactive: [4] 97 % of control | [5] 93 % of control and 111 % of control | [6] 97 % of control | endpoint: mean survival time, dose: 400.0 mg/kg/injection, schedule: Q04DX002 (ip), vehicle: Klucel (hydroxypropylcellulose) (HPC) 90 % of control

CNC(=O)NS(=O)(=O)c1ccc(Cl)cc1
inactive: [18] 97 % of control and 102 % of control | [11] 103 % of control and 105 % of control | endpoint: mean survival time, dose: 200.0 mg/kg/injection, schedule: Q04DX002 (ip), vehicle: saline with Tween-80 98 % of control and 91 % of control | [15] 94 % of control and 101 % of control | endpoint: mean survival time, dose: 400.0 mg/kg/injection, schedule: Q04DX002 (ip), vehicle: saline with Tween-80 97 % of control and 98 % of control | [19] 115 % of control and 90 % of control

CCOc1n[n+]([O-])c(Cl)c(C)c1[N+](=O)[O-]
inactive: endpoint: mean survival time, dose: 25.0 mg/kg/injection, schedule: Q04DX002 (ip), vehicle: saline with Tween-80 96 % of control | endpoint: mean survival time, dose: 50.0 mg/kg/injection, schedule: Q04DX002 (ip), vehicle: saline with Tween-80 92 % of control | [18] 96 % of control

COC(=O)C1CC2C(CCC3C(C)(C(=O)OC)CCCC23C)C(=O)C1(O)C(C)C (configuration not stated)
inactive: [9] 95 % of control | [13] 90 % of control | [20] 91 % of control

CC(C)N(C)c1ccc(N=Nc2cc(Cl)ccc2Cl)cc1
inactive: [11] 98 % of control | [15] 102 % of control | [19] 104 % of control

SCCSCCNc1ccccc1
inactive: [8] 101 % of control | [9] 101 % of control | [13] 101 % of control

Nc1ccc(Cn2ccc(=O)[nH]c2=O)cc1
inactive: endpoint: mean survival time, dose: 100.0 mg/kg/injection, schedule: Q01DX001 (ip), vehicle: saline with Tween-80 102 % of control | endpoint: mean survival time, dose: 200.0 mg/kg/injection, schedule: Q01DX001 (ip), vehicle: saline with Tween-80 94 % of control | endpoint: mean survival time, dose: 400.0 mg/kg/injection, schedule: Q01DX001 (ip), vehicle: saline with Tween-80 87 % of control

O=C(NC(=S)Nc1ccccn1)c1ccccc1
inactive: endpoint: mean survival time, dose: 25.0 mg/kg/injection, schedule: Q04DX002 (ip), vehicle: other 102 % of control | endpoint: mean survival time, dose: 50.0 mg/kg/injection, schedule: Q04DX002 (ip), vehicle: other 100 % of control | endpoint: mean survival time, dose: 100.0 mg/kg/injection, schedule: Q04DX002 (ip), vehicle: other 105 % of control | endpoint: mean survival time, dose: 200.0 mg/kg/injection, schedule: Q04DX002 (ip), vehicle: other 86 % of control

N#CCC[N+]1([O-])CCCC1C(=O)O (configuration not stated)
inactive: [21] 103 % of control | [22] 101 % of control | [23] 103 % of control

O=C(O)c1cc2ccc(O)cc2oc1=O
inactive: [1] 94 % of control | [2] 94 % of control | [3] 97 % of control

c1ccc([Si](c2ccccc2)(c2ccccc2)c2ccc([Si](c3ccccc3)(c3ccccc3)c3ccccc3)cc2)cc1
inactive: [9] 95 % of control | [11] 103 % of control | [13] 92 % of control | [15] 90 % of control | [20] 90 % of control | [19] 106 % of control

Cc1ccc(OC(=O)C2=C(C(=O)Oc3ccc(C)cc3)CCC2)cc1
inactive: endpoint: mean survival time, dose: 75.0 mg/kg/injection, schedule: Q01DX001 (ip), vehicle: saline 95 % of control | endpoint: mean survival time, dose: 150.0 mg/kg/injection, schedule: Q01DX001 (ip), vehicle: saline 97 % of control | endpoint: mean survival time, dose: 300.0 mg/kg/injection, schedule: Q01DX001 (ip), vehicle: saline 95 % of control

CC12CC1(C)C(=O)OC2=O (configuration not stated)
inactive: [11] 87 % of control | [15] 92 % of control

N#C/C(=C1C=C/C(=N/O)C(Cl)=C/1)c1ccc(Cl)cc1
inactive: [7] 96 % of control | [1] 98 % of control | [11] 103 % of control | [2] 93 % of control | [15] 97 % of control | [3] 91 % of control | [19] 97 % of control

C[N+](C)(C)c1ncncn1
inactive: endpoint: mean survival time, dose: 12.0 mg/kg/injection, schedule: Q04DX003 (ip), vehicle: saline 98 % of control | endpoint: mean survival time, dose: 25.0 mg/kg/injection, schedule: Q04DX003 (ip), vehicle: saline 98 % of control | endpoint: mean survival time, dose: 50.0 mg/kg/injection, schedule: Q04DX003 (ip), vehicle: saline 104 % of control

C=C(Cl)CNCC
inactive: endpoint: mean survival time, dose: 12.5 mg/kg/injection, schedule: Q01DX009 (ip), vehicle: saline with Tween-80 91 % of control | endpoint: mean survival time, dose: 25.0 mg/kg/injection, schedule: Q01DX009 (ip), vehicle: saline with Tween-80 97 % of control | [8] 119 % of control

CC(=O)OC1CCC(=O)C2C(C(=O)O)CCCC12 (configuration not stated)
inactive: [21] 97 % of control | [22] 103 % of control | [23] 91 % of control

CC(C)(C1c2ccccc2NC(=O)c2ccccc21)[N+](=O)[O-] (configuration not stated)
inactive: [11] 101 % of control | [15] 94 % of control

COc1ccc(CC2Cc3cc(OC)c(OC)cc3C=N2)cc1OC (configuration not stated)
inactive: [10] 100 % of control | [12] 98 % of control | [14] 100 % of control | [16] 93 % of control | [17] 91 % of control

Cc1ccc(S(=O)(=O)N2c3ccccc3-c3ccccc3C(=O)C2Br)cc1 (configuration not stated)
inactive: [1] 105 % of control | [2] 105 % of control | [3] 124 % of control

CC(=O)Nc1cccc(C(=O)O)c1O
inactive: [21] 100 % of control | [22] 105 % of control | [23] 100 % of control

CC(=O)OCC1OC(SSCc2ccccc2)C(OC(C)=O)C(OC(C)=O)C1OC(C)=O (configuration not stated)
inactive: [21] 96 % of control | [22] 93 % of control | [23] 93 % of control

Cn1c(=O)c2ccccc2n(C)c1=O
inactive: endpoint: mean survival time, dose: 100.0 mg/kg/injection, schedule: Q04DX003 (ip), vehicle: Klucel (hydroxypropylcellulose) (HPC) 96 % of control | endpoint: mean survival time, dose: 200.0 mg/kg/injection, schedule: Q04DX003 (ip), vehicle: Klucel (hydroxypropylcellulose) (HPC) 102 % of control | endpoint: mean survival time, dose: 400.0 mg/kg/injection, schedule: Q04DX003 (ip), vehicle: Klucel (hydroxypropylcellulose) (HPC) 100 % of control
